Laboratory results published in patent US20260007758A1, “SO[…]-2 RECEPTOR (SST2R) NON-PEPTIDE DRUG CONJUGATES AND USES THEREOF” (Crinetics Pharmaceuticals, Inc., priority 2024, published 2026).

Legend:
Assay type in all cases: cell-based
SST2 = molecular target: T1, SST2 (Homo sapiens, UniProt P30874); assay: PathHunter CHO-K1 SST2 Internalization Assay; settings: PathHunter CHO-K1 SST2 cells; 90 min at 37 C; luminescence; read-out: Internalization EC50
T1 construct: host or cells: PathHunter CHO-K1 SST2 cells
T1 sequence (P30874 whole entry): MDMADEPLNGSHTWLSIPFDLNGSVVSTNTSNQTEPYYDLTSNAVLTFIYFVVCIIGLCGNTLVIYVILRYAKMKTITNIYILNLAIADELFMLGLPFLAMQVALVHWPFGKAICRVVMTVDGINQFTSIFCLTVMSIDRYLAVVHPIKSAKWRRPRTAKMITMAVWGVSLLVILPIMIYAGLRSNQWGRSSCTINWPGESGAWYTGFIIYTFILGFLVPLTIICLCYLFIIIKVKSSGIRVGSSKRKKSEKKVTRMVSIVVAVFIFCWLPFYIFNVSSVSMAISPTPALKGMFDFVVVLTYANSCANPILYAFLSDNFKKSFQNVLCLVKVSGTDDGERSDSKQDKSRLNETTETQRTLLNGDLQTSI
Summary of the method: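 CHO-K1 cells expressing human SST2, 2500 cells/well, grown 48 h, then exposed 90 min at 37 C to 11-point 1:3 NDC dilutions (final top 10 uM). Beta-Glo luminescence after 60 min at room temperature; four-parameter IC50, duplicate mean, background-corrected.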

[1] = tested on: NCI-H524 human small cell lung cancer cells; assay: H524 assay: inhibition of cell proliferation (CellTiter Glo); settings: 2 h treatment, washout, additional 70 h incubation
Summary of the method: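 NCI-H524 cells were exposed for 2 h to NDC in an 11-point two-fold series starting at 1 uM. The drug was then washed out and cells grew a further 70 h. CellTiter Glo luminescence gave % inhibition versus untreated control, and IC50 came from a four-parameter nonlinear regression.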

[2] = molecular target: T2, human somatostatin receptor subtype 2 (Homo sapiens, UniProt P30874); assay: Functional assay for SSTR2 agonists (HTRF cAMP); settings: CHO-K1 cells stably expressing human SST2; NKH477-stimulated cAMP; 20 min at 37 C; read-out: hSST2 cAMP Avg EC50
T2 construct: expressed in transfected cells
T2 sequence (P30874 whole entry): as above
Summary of the method: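 CHO-K1 cells stably expressing human SSTR2 treated with compound (typically 0-10,000 nM final) for 20 min at 37 °C. Lysate cAMP measured by HTRF (665/620 nm ratio), converted via standard curve; EC50 from cAMP vs concentration.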

Row | Compound | EC50 (SST2) | EC50 [1] | EC50 [2]
1 | CC[C@H](C)[C@@H]([C@@H](CC(=O)N1CCC[C@H]1[C@H](OC)[C@@H](C)C(=O)N[C@H](C)[C@@H](O)c1ccccc1)OC)N(C)C(=O)[C@@H](NC(=O)[C@H](C(C)C)N(C)C(=O)OCc1ccc(NC(=O)[C@H](CCCNC(N)=O)NC(=O)[C@@H](NC(=O)[C@H](NC(=O)CCOCCC(=O)NCCNc2ncc(-c3cc(C)cc(F)c3)c(N3CCC(N)CC3)c2-c2nc3ccc(Cl)cc3[nH]2)c2cnn(C)c2)C(C)C)c(OCC(=O)O)c1)C(C)C [Compound 204] | 9.2 nM | 30 nM | 0.14 nM
2 | CC[C@H](C)[C@@H]([C@@H](CC(=O)N1CCC[C@H]1[C@H](OC)[C@@H](C)C(=O)N[C@H](C)[C@@H](O)c1ccccc1)OC)N(C)C(=O)[C@@H](NC(=O)[C@H](C(C)C)N(C)C(=O)OCc1ccc(NC(=O)[C@H](CCCNC(N)=O)NC(=O)[C@@H](NC(=O)C[C@@H](N)C(=O)NCCOCCC(=O)NCCNc2ncc(-c3cc(C)cc(F)c3)c(N3CCC(N)CC3)c2-c2nc3ccc(Cl)cc3[nH]2)C(C)C)c(CCC(=O)O)c1)C(C)C [Compound 205] | 5.2 nM | 37 nM | 0.086 nM
3 | CC[C@H](C)[C@@H]([C@@H](CC(=O)N1CCC[C@H]1[C@H](OC)[C@@H](C)C(=O)N[C@H](C)[C@@H](O)c1ccccc1)OC)N(C)C(=O)[C@@H](NC(=O)[C@H](C(C)C)N(C)C(=O)OCc1ccc(NC(=O)[C@H](C)NC(=O)[C@@H](NC(=O)CCOCCC(=O)N(C)CC(=O)NCCNc2ncc(-c3cc(C)cc(F)c3)c(N3CCC(N)CC3)c2-c2nc3ccc(Cl)cc3[nH]2)C(C)C)c(O[C@@H]2O[C@H](C(=O)NCCO)[C@@H](O)[C@H](O)[C@H]2O)c1)C(C)C [Compound 206] | 4.5 nM | 14 nM | 0.12 nM
4 | CC[C@H](C)[C@@H]([C@@H](CC(=O)N1CCC[C@H]1[C@H](OC)[C@@H](C)C(=O)N[C@H](C)[C@@H](O)c1ccccc1)OC)N(C)C(=O)[C@@H](NC(=O)[C@H](C(C)C)N(C)C(=O)OCc1ccc(NC(=O)[C@H](CCCNC(N)=O)NC(=O)[C@@H](NC(=O)CCOCCC(=O)N(C)CC(=O)NCCNc2ncc(-c3cc(C)cc(F)c3)c(N3CCC(N)CC3)c2-c2nc3ccc(Cl)cc3[nH]2)C(C)C)c(O[C@@H]2O[C@H](C(=O)NCCO)[C@@H](O)[C@H](O)[C@H]2O)c1)C(C)C [Compound 207] | 5.9 nM | 8.4 nM | 0.23 nM
5 | CC[C@H](C)[C@@H]([C@@H](CC(=O)N1CCC[C@H]1[C@H](OC)[C@@H](C)C(=O)N[C@H](C)[C@@H](O)c1ccccc1)OC)N(C)C(=O)[C@@H](NC(=O)[C@H](C(C)C)N(C)C(=O)OCc1ccc(NC(=O)[C@H](CCCNC(N)=O)NC(=O)[C@@H](NC(=O)CCOCCC(=O)NCCNc2ncc(-c3cc(C)cc(F)c3)c(N3CCC(N)CC3)c2-c2nc3ccc(Cl)cc3[nH]2)C(C)C)c(O[C@@H]2O[C@H](C(=O)NCCS(=O)(=O)O)[C@@H](O)[C@H](O)[C@H]2O)c1)C(C)C [Compound 208] | 3.1 nM | 8.9 nM | 0.062 nM
6 | CC[C@H](C)[C@@H]([C@@H](CC(=O)N1CCC[C@H]1[C@H](OC)[C@@H](C)C(=O)N[C@H](C)[C@@H](O)c1ccccc1)OC)N(C)C(=O)[C@@H](NC(=O)[C@H](C(C)C)N(C)C(=O)OCc1ccc(NC(=O)[C@H](CCCNC(N)=O)NC(=O)[C@@H](NC(=O)CCCC(=O)N(C)CC(=O)NCCNc2ncc(-c3cc(C)cc(F)c3)c(N3CCC(N)CC3)c2-c2nc3ccc(Cl)cc3[nH]2)C(C)C)c(O[C@@H]2O[C@H](C(=O)NCCN)[C@@H](O)[C@H](O)[C@H]2O)c1)C(C)C [Compound 209] | 2.7 nM | 1.5 nM | 0.11 nM
7 | CC[C@H](C)[C@@H]([C@@H](CC(=O)N1CCC[C@H]1[C@H](OC)[C@@H](C)C(=O)N[C@H](C)[C@@H](O)c1ccccc1)OC)N(C)C(=O)[C@@H](NC(=O)[C@H](C(C)C)N(C)C(=O)OCc1ccc(NC(=O)[C@H](CCCNC(N)=O)NC(=O)C2(NC(=O)CCOCCC(=O)NCCNc3ncc(-c4cc(C)cc(F)c4)c(N4CCC(N)CC4)c3-c3nc4ccc(Cl)cc4[nH]3)CCC2)c(O[C@H]2O[C@H](C(=O)NCC(=O)O)[C@@H](O)[C@H](O)[C@H]2O)c1)C(C)C [Compound 210] | 2.8 nM | 2300 nM | 0.051 nM
8 | CC[C@H](C)[C@@H]([C@@H](CC(=O)N1CCC[C@H]1[C@H](OC)[C@@H](C)C(=O)N[C@H](C)[C@@H](O)c1ccccc1)OC)N(C)C(=O)[C@@H](NC(=O)[C@H](C(C)C)N(C)C(=O)OCc1ccc(NC(=O)[C@H](CCCNC(N)=O)NC(=O)[C@@H](NC(=O)C[C@@H](N)C(=O)NCCOCCC(=O)NCCNc2ncc(-c3cc(C)cc(F)c3)c(N3CCC(N)CC3)c2-c2nc3ccc(Cl)cc3[nH]2)C(C)C)c(O[C@@H]2O[C@H](C(=O)N[C@@H](CCCCNC(=O)CCCCc3ccc(I)cc3)C(=O)O)[C@@H](O)[C@H](O)[C@H]2O)c1)C(C)C [Compound 211] | 3.2 nM | 89 nM | 0.19 nM
9 | CC[C@H](C)[C@@H]([C@@H](CC(=O)N1CCC[C@H]1[C@H](OC)[C@@H](C)C(=O)N[C@H](C)[C@@H](O)c1ccccc1)OC)N(C)C(=O)[C@@H](NC(=O)[C@H](C(C)C)N(C)C(=O)OCc1ccc(NC(=O)[C@H](CCCNC(N)=O)NC(=O)[C@@H](NC(=O)[C@H](Cc2c[nH]cn2)NC(=O)CCOCCC(=O)NCCNc2ncc(-c3cc(C)cc(F)c3)c(N3CCC(N)CC3)c2-c2nc3ccc(Cl)cc3[nH]2)C(C)C)c(O[C@@H]2C[C@H](C(=O)NCC(=O)O)[C@@H](O)[C@H](O)[C@H]2O)c1)C(C)C [Compound 212] | 4.5 nM | 20 nM | 0.088 nM
10 | CC[C@H](C)[C@@H]([C@@H](CC(=O)N1CCC[C@H]1[C@H](OC)[C@@H](C)C(=O)N[C@H](C)[C@@H](O)c1ccccc1)OC)N(C)C(=O)[C@@H](NC(=O)[C@H](C(C)C)N(C)C(=O)OCc1ccc(NC(=O)[C@H](CCCNC(N)=O)NC(=O)[C@@H](NC(=O)[C@H](CCCO)NC(=O)CCOCCC(=O)NCCNc2ncc(-c3cc(C)cc(F)c3)c(N3CCC(N)CC3)c2-c2nc3cc(Cl)ccc3[nH]2)C(C)C)c(O[C@@H]2O[C@H](C(=O)NCC(=O)O)[C@@H](O)[C@H](O)[C@H]2O)c1)C(C)C [Compound 213] | 3.4 nM | 9.2 nM | 0.089 nM
11 | CC[C@H](C)[C@@H]([C@@H](CC(=O)N1CCC[C@H]1[C@H](OC)[C@@H](C)C(=O)N[C@H](C)[C@@H](O)c1ccccc1)OC)N(C)C(=O)[C@@H](NC(=O)[C@H](C(C)C)N(C)C(=O)OCc1ccc(NC(=O)[C@H](CCCNC(N)=O)NC(=O)[C@@H](NS(=O)(=O)C[C@H](C)NC(=O)CCOCCC(=O)NCCNc2ncc(-c3cc(C)cc(F)c3)c(N3CCC(N)CC3)c2-c2nc3ccc(Cl)cc3[nH]2)C(C)C)c(O[C@@H]2O[C@H](C(=O)NCC(=O)O)[C@@H](O)[C@H](O)[C@H]2O)c1)C(C)C [Compound 214] | 4 nM | 8.9 nM | 0.11 nM
12 | CC[C@H](C)[C@@H]([C@@H](CC(=O)N1CCC[C@H]1[C@H](OC)[C@@H](C)C(=O)N[C@H](C)[C@@H](O)c1ccccc1)OC)N(C)C(=O)[C@@H](NC(=O)[C@H](C(C)C)N(C)C(=O)OCc1ccc(NC(=O)[C@H](CCCNC(N)=O)NC(=O)[C@@H](NC(=O)CCOCCC(=O)N(C)CC(=O)NCCNc2ncc(-c3cc(C)cc(F)c3)c(N3CCC(N)CC3)c2-c2nc3ccc(Cl)cc3[nH]2)C(C)C)c(O[C@@H]2O[C@H](C(=O)NCCN(C)C)[C@@H](O)[C@H](O)[C@H]2O)c1)C(C)C [Compound 215] | 7.8 nM | 5 nM | 0.14 nM
13 | CC[C@H](C)[C@@H]([C@@H](CC(=O)N1CCC[C@H]1[C@H](OC)[C@@H](C)C(=O)N[C@H](C)[C@@H](O)c1ccccc1)OC)N(C)C(=O)[C@@H](NC(=O)[C@H](C(C)C)N(C)C(=O)OCc1ccc(NC(=O)[C@H](CCCNC(N)=O)NC(=O)[C@@H](NC(=O)CCOCCC(=O)NCCNc2ncc(-c3cc(C)cc(F)c3)c(N3CCC(N)CC3)c2-c2nc3ccc(Cl)cc3[nH]2)C(C)C)c(O[C@@H]2O[C@H](C(=O)N(C)CC(=O)O)[C@@H](O)[C@H](O)[C@H]2O)c1)C(C)C [Compound 216] | 3 nM | 8.6 nM | 0.076 nM
14 | CC[C@H](C)[C@@H]([C@@H](CC(=O)N1CCC[C@H]1[C@H](OC)[C@@H](C)C(=O)N[C@H](C)[C@@H](O)c1ccccc1)OC)N(C)C(=O)[C@@H](NC(=O)[C@H](C(C)C)N(C)C(=O)OCc1ccc(NC(=O)[C@H](CCCNC(N)=O)NC(=O)[C@@H](NC(=O)CCOCCC(=O)NCCNc2ncc(-c3cc(C)cc(F)c3)c(N3CCC(N)CC3)c2-c2nc3ccc(Cl)cc3[nH]2)C(C)C)c(O[C@@H]2O[C@H](C(=O)N(C)C)[C@@H](O)[C@H](O)[C@H]2O)c1)C(C)C [Compound 217] | 6 nM | 6.9 nM | 0.093 nM
15 | CC[C@H](C)[C@@H]([C@@H](CC(=O)N1CCC[C@H]1[C@H](OC)[C@@H](C)C(=O)N[C@H](C)[C@@H](O)c1ccccc1)OC)N(C)C(=O)[C@@H](NC(=O)[C@H](C(C)C)N(C)C(=O)OCc1ccc(NC(=O)[C@H](CCCNC(N)=O)NC(=O)[C@@H](NC(=O)CCOCCC(=O)NCCNc2ncc(-c3cc(C)cc(F)c3)c(N3CCC(N)CC3)c2-c2nc3ccc(Cl)cc3[nH]2)C(C)C)c(O[C@@H]2O[C@H](C(=O)N(C)CCS(=O)(=O)O)[C@@H](O)[C@H](O)[C@H]2O)c1)C(C)C [Compound 218] | 2.8 nM | 7 nM | 0.07 nM
